# “Also recorded” adds a separate entry of the source. Like-named read-outs stand apart in the source and are kept apart here.
# Assays:
# ICR mice = assay: Novel open field test; format: in vivo; details: 10 mg/kg
# Procedure: Animals were tested for open-field activity in a novel environment one hour after i.p. injection of compound as described in Sumislawski et al., 2011. Briefly, one-hour sessions were performed using automated experimental chambers (27.9 27.9 cm; MEDOFA-510; MED Associates, Ga., Vermont, United States of America) under constant illumination within a sound-attenuated room. Analysis of open field activity was performed using Activity Monitor v5.10 (MED Associates).
# [1] = tested on: brain eCB, AA and PG levels; assay: Brain eCB, NAE, MAG, AA and PG levels after i.p. injection; format: in vivo, mice; details: for Brain AA levels / Brain PG levels: 10 mg/kg i.p. (Compound A: any dose tested); for Brain AEA levels: 10 mg/kg i.p.
# Procedure: 5-7 week old male ICR mice were used for all experiments with the exception of knockout animals (Harlan, Indianapolis, Ind., United States of America). Mice were housed 5 per […]. All behavioral tests were conducted during the light cycle between 0900 and 1700. KO and WT littermate controls for FAAH^(−/−) and COX-2^(−/−) mice were derived from heterozygote breeding pairs, bred and genotyped as described in Uddin et al., 2011. CB1^(−/−) mice were bred from homozygote breeding pairs and genotyped as described in Pan et al., 2008. Mice were group-housed on a 12:12 light-dark cycle (lights on at 06:00), with food and water available ad libitum. All animal studies were approved by the Vanderbilt Institutional Animal Care and Use Committee and conducted in accordance with the Guide for the Care and Use of Laboratory Animals of the United States National Institutes of Health.
# (§1) Mice were sacrificed by cervical dislocation and decapitation. The brain, lungs, liver, stomach, small intestines, and kidneys were then rapidly removed and frozen on a metal block in dry ice. The tissue was then placed in a tube and stored at −80° C. until extraction, usually one day after harvesting. For PG and eCB analysis, lipid extraction from tissue was carried out as described in Patel et al., 2009.
# (§2) Analytes were quantified using LC-MS/MS on a Quantum triple-quadrupole mass spectrometer in positive-ion mode using selected reaction monitoring. Detection of eicosanoids was performed as described in Kingsley & Marnett, 2007. For fatty acid analysis the mobile phases used were 80 μM AgOAc with 0.1% (v/v) acetic acid in H2O (solvent A) and 120 μM AgOAc with 0.1% (v/v) acetic acid in MeOH (solvent B). The analytes were eluted using a gradient from 20% A to 99% B over 5 minutes. The transitions used were m/z 300→282 for PEA, m/z 328→310 for SEA, m/z 434→416 for OEA, m/z 456→438 for AEA, m/z 464→446 for AEA-d8, m/z 331→257 for 2-PG, m/z 359→285 for 2-SG, m/z 463→389 for 2-OG, m/z 485→411 for 2-AG, m/z 493→419 for 2-AG-d8, m/z 519→409 for AA, and m/z 527→417 for AA-d8. Peak areas for the analytes were normalized to the appropriate internal standard and then normalized to tissue mass for in vivo samples.
# purified murine COX-2 = target: T1, purified murine COX-2 (Mus musculus, UniProt Q05769); assay: Inhibition of mCOX-2 dependent oxygenation of 2-AG and AA by profens in vitro; format: biochemical; set-up: made in house; host or cells: insect cells; details: achiral profens; for inhibition at 10 µM: at 10 μM inhibitor
# T1 sequence (Q05769 18-604): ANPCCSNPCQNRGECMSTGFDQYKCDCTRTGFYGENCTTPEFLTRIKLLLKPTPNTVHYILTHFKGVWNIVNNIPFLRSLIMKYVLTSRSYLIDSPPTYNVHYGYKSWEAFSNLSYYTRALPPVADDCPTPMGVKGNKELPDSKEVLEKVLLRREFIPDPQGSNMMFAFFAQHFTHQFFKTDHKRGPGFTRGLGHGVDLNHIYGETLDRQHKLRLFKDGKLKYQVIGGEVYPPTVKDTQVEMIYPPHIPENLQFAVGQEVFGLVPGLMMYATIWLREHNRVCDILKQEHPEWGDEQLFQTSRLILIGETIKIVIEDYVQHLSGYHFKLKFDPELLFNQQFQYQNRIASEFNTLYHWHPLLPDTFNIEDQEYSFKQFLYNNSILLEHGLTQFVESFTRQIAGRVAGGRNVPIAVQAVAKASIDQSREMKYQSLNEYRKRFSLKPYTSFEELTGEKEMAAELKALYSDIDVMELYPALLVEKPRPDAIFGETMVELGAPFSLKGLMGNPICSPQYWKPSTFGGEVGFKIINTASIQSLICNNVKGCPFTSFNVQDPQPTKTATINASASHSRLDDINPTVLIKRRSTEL
# Procedure: Desired concentrations of inhibitor in DMSO or blank (DMSO) were incubated with mCOX-2 (40 nM) for 3 minutes in 100 mM Tris-HCl with 0.5 mM phenol, pH 8.0 at 37° C. After pre-incubation of enzyme and inhibitor, 5 μM of AA or 2-AG was added at 37° C. Thirty seconds later, the reaction was quenched with 200 μL of ice-cold ethyl acetate containing 0.5% acetic acid (v/v) and 1 μM PGE2-d4 and PGE2-G-d5. The solution was then vortexed and the aqueous layer frozen. The organic layer was removed and evaporated to near-dryness under nitrogen. The samples were reconstituted in 1:1 MeOH:H2O and chromatographed using a LUNA® C18(2) column (50 2 mm, 3 μm; Phenomenex, Torrance, Calif., United States of America). […] Analyte peak areas were normalized to the appropriate internal standard to determine the amount of product formation, and inhibition was determined by normalization to a DMSO control.
# [2] = target: T2, COX-2 in RAW 264.7 macrophages (Mus musculus, UniProt Q05769); assay: RAW cells assay: oxygenation of 2-AG and AA; format: cell-based
# T2 construct: endogenous in cells; host or cells: RAW 264.7 macrophages stimulated with LPS (and GM-CSF / interferon γ where described)
# T2 sequence (Q05769 18-604): T1 sequence (Q05769 18-604)
# Procedure: Two hours after stimulation, varying doses of inhibitor were added to the cell media and 6 hr after stimulation the media were collected and analyzed by LC-MS-MS for prostaglandin levels.
# The cells were then stimulated overnight with 20 ng/ml of granulocyte-macrophage colony-stimulating factor. The media was replaced in the morning with DMEM with GLUTAMAX® and the cells were stimulated with 100 ng/ml lipopolysaccharide and 20 units/ml interferon γ. Two hours after stimulation varying doses of inhibitor were added to the cell media and 6 hours after stimulation the media was collected and extracted in acidified ethyl acetate spiked with deuterated internal standards. The organic layer was dried down under a stream of nitrogen gas and reconstituted in 1:1 water:methanol and analyzed by LC-MS/MS for prostaglandin levels using the same instrumentation, column, solvents and conditions as described for the in vitro assay above.
# COX-2 = target: T3, COX-2 (Mus musculus, UniProt Q05769); assay: Inhibition of COX-2 oxygenation by acetaminophen and its metabolites; format: biochemical; details: for Inhibition of AA oxygenation: up to 1 mM
# T3 sequence (Q05769 18-604): T1 sequence (Q05769 18-604)
# wild type mCOX-2 = target: T4, wild type mCOX-2 (Mus musculus, UniProt Q05769); assay: biochemical
# T4 sequence (Q05769 18-604): T1 sequence (Q05769 18-604)
# mCOX-2 = target: T5, mCOX-2 (Mus musculus, UniProt Q05769); assay: Inhibition of COX-2-mediated oxygenation of arachidonic acid and 2-AG, purified enzyme, 15 min preincubation; format: biochemical, murine
# T5 construct: made in house; host or cells: insect cells
# T5 sequence (Q05769 18-604): T1 sequence (Q05769 18-604)
# Procedure: Various concentrations of inhibitor (or DMSO) were incubated with mCOX-2 (200 nM) for 5-15 minutes in 100 mM Tris-HCl with 0.5 mM phenol, pH 8.0. For mutant mCOX-2 experiments, the enzyme concentration was adjusted such that the turnover was approximately equal to wild type enzyme. The preincubation time was determined on the basis of previous reports regarding the time required to achieve maximal inhibition, and preincubation was performed at 25° C. except for the final 3 minutes, which took place at 37° C. […] After the preincubation of enzyme and inhibitor, arachidonic acid or 2-AG was added for 30 seconds at 37° C. The reaction was quenched with ice-cold ethyl acetate containing 0.5% (v/v) acetic acid and 1 μM PGE2-d4 and PGE2-G-d5. The solution was then vigorously mixed and cooled on ice. The organic layer was separated and evaporated to near-dryness under nitrogen. […] Peak areas for analytes were normalized to the appropriate internal standard to determine the amount of product formation, and the amount of inhibition was determined by normalization to a DMSO control.
# [3] = tested on: peripheral tissue eCB, NAE, MAG and PG levels; assay: Peripheral tissue NAE, MAG and PG levels after i.p. injection; format: in vivo, mice; details: stomach, heart, kidney, lung, intestine
# Procedure: as §1
# as §2, with “samples. […]” for “samples.”
# [4] = 2-AG IC50, 2-AG oxygenation by COX-2
# [5] = AA IC50, AA oxygenation by COX-2
# [6] = read-out: IC50, COX-2 oxygenation of 2-AG, 50 μM 2-AG, 15 min preincubation, LC-MS/MS
smiles,measurement,setting,value
"COc1ccc(-n2nc(C(F)(F)F)cc2-c2ccc(Cl)cc2)cc1 [SC-560, reference compound]",Center distance travelled and center time in the open-field arena,ICR mice,did not have any significant behavioral effect; also recorded: no significant behavioral effects
same,Brain AA levels,[1]; 2 hours,significantly increased
same,Brain PG levels,[1]; 2 hours,profoundly decreased
same,Brain AEA levels,"[1]; 2 hours, vs vehicle",significantly increased
"O=C(O)C1(c2ccc(-c3ccccc3)c(F)c2)CC1 [Compound 5a, 1-(2-fluoro-[1,1′-biphenyl]-4-yl)cyclopropanecarboxylic acid]",inhibition at 10 µM,"purified murine COX-2; AA 5 μM, read-out: AA % Inhibition",0%
same,IC50,"purified murine COX-2; murine COX-2 40 nM, 3 min preincubation, 2-AG 5 μM, 37° C., 30 s, mean ± SD, read-out: 2-AG IC50",2.3 µM
same,inhibition at 10 µM,"purified murine COX-2; read-out: Maximum inhibition of 2-AG oxygenation, 2-AG 5 μM",87%
same,inhibition at 25 µM,"[2]; RAW264.7, at 25 μM compound",55%
same,IC50,[2]; conversion of 2-AG to PGE2-G/PGD2-G,10.2 µM
Nc1ccc(O)cc1 [4-aminophenol],IC50,COX-2,71 µM
same,Inhibition of AA oxygenation,COX-2,No inhibition
COc1ccc2c(c1)c(CC(=O)N(C)C)c(C)n2C(=O)c1ccc(Cl)cc1 [D],IC50,wild type mCOX-2; [4],0.424 µM
same,IC50,wild type mCOX-2; [5],19 µM
"CC(=O)Nc1ccc(O)cc1 [APAP, acetaminophen]",Inhibition of AA oxygenation,COX-2,No inhibition
COc1ccc2c(c1)c(CC(=O)NCCO)c(C)n2C(=O)c1ccc(Cl)cc1 [C],IC50,wild type mCOX-2; [4],0.237 µM
same,IC50,wild type mCOX-2; [5],0.262 µM
COc1ccc2c(c1)c(CC(=O)N(C)CCc1ccccc1)c(C)n2C(=O)c1ccc(Cl)cc1 [G],IC50,wild type mCOX-2; [4],0.715 µM
same,IC50,wild type mCOX-2; [5],> 25 µM
Cc1ccc(Nc2c(F)cccc2Cl)c(CC(=O)O)c1 [Lumiracoxib],"IC50, COX-2 oxygenation of arachidonic acid","mCOX-2; 50 μM AA, 15 min preincubation, LC-MS/MS",No inhibition
same,IC50,mCOX-2; [6],0.04 µM
CS(=O)(=O)c1ccc(C2=C(c3ccccc3)C(=O)OC2)cc1 [Rofecoxib],IC50,"mCOX-2; read-out: IC50, COX-2 oxygenation of 2-AG",0.085 µM
same,IC50,"mCOX-2; read-out: IC50, COX-2 oxygenation of arachidonic acid",0.52 µM
COc1ccc2c(c1)c(CC(N)=O)c(C)n2C(=O)c1ccc(Cl)cc1 [B],IC50,wild type mCOX-2; [4],0.59 µM
same,IC50,wild type mCOX-2; [5],0.61 µM
CCN(CC)C(=O)Cc1c(C)n(C(=O)c2ccc(Cl)cc2)c2ccc(OC)cc12 [E],IC50,wild type mCOX-2; [4],0.583 µM
same,IC50,wild type mCOX-2; [5],23 µM
"CS(=O)(=O)Nc1ccc([N+](=O)[O-])cc1OC1CCCCC1 [NS-398, reference compound]",Center distance travelled and center time in the open-field arena,ICR mice,significantly increased
same,Brain AA levels,[1]; 2 hours,significantly increased
same,Brain PG levels,[1]; 2 hours,profoundly decreased
same,Brain AEA levels,"[1]; 2 hours, vs vehicle",significantly increased
COc1ccc2c(c1)c(CC(=O)O)cn2C(=O)c1ccc(Cl)cc1 [DM-INDO],IC50,"mCOX-2; 50 μM AA, 15 min preincubation, LC-MS/MS, read-out: IC50, COX-2 oxygenation of arachidonic acid",> 25 µM
same,IC50,mCOX-2; [6],0.25 µM
"COc1ccc2c(c1)c(CC(=O)O)c(C)n2C(=O)c1ccc(Cl)cc1 [indomethacin, reference compound]",Center distance travelled and center time in the open-field arena,ICR mice,significantly increased
same,Center distance travelled and center time in the open-field arena,ICR mice; listed as Indomethacin,increased
same,Brain AA levels,[1]; 2 hours,significantly increased
same,Brain PG levels,[1]; 2 hours,profoundly decreased
same,Brain 2-AG levels,"[1]; 10 mg/kg i.p. (highest dose), 2 hours, vs vehicle",significantly increased
same,Brain AEA levels,"[1]; 2 hours, vs vehicle",significantly increased
same,Brain AEA levels (Example 8),"[1]; 2 hours after i.p administration, dose not stated",increased
same,Brain or lung PG levels (Example 8),[1]; dose not stated,profoundly decreased
same,PG levels in peripheral tissues,[3],robustly decreased
COc1ccc2c(c1)c(CC(=O)N1CCCCC1)c(C)n2C(=O)c1ccc(Cl)cc1 [F],IC50,wild type mCOX-2; [4],0.653 µM
same,IC50,wild type mCOX-2; [5],> 25 µM

# Reference: US20150183737A1, “COMPOSITIONS AND METHODS FOR SUBSTRATE-SELECTIVE INHIBITION OF ENDOCANNABINOID OXYGENATION” (Vanderbilt University, priority 2012, published 2015)
